Values of other authors as cited in patent publication US9095607B2, “Gel for topical application of clove essential oil with broad spectrum anti-inflammatory action and method of preparing same” (priority 2013, dated 2015).

Columns and labels:
[1] = tested on: NF-kB
[2] = tested on: neutrophil migration
[3] = tested on: kinin B1 receptors

SMILES	LPS-induced NF-kB activation [1]	LPS-induced neutrophil migration [2]	in vivo up-regulation of kinin B1 receptors [3]
C/C1=C\CC/C(C)=C/CC(C)(C)/C=C/C1 [Alpha-humulene]	inhibit	inhibit	ability to prevent
C=C1CC/C=C(\C)CC[C@@H]2[C@@H]1CC2(C)C [Beta-caryophyllene]	inhibit	inhibit	–
